From patent US12594254B2, “Intranasal administration of n-acetylcysteine and uses thereof” (Neuronasal, Inc., priority 2022, dated 2026)

Columns and labels:
Assay type in all cases: in vivo, human
NAA/creatine ratio = assay: 1H-MRS change from baseline of regional brain NAA/Creatine ratio after single dose IN NAC; details: for increase of NAA/creatine ratio post-dose: dorsolateral prefrontal cortex
Description: (§1) Various assays were designed and tested assess the feasibility of IN NAC administration for direct nose-to-brain delivery as shown and described for FIGS. 1-4. Assays include studies in healthy participants using ^1H-MRS assessment of change from baseline in NAC-derived metabolic markers in three brain regions (occipital cortex, striatum, and DLPF), following a single dose of 196 mg to 200 mg IN NAC at 1, 3, and 6 hours.
(§2) Magnetic resonance (MR) spectra of NAC-derived brain metabolites in three brain regions (occipital cortex, striatum, and DLPF) at baseline and 1, 3, and 6 hours following IN NAC were assessed. Percentage change from Baseline of GSH/Creatine and N-Acetylaspartate (NAA)/Creatine in the three regions by treatment group were plotted (FIGS. 3-4).

[1] = Blood PK of total NAC and GSH after a single dose of IN NAC in healthy participants
Description: as §1
Concentrations of the targeted metabolites were reported for various time points to assess total NAC and GSH concentrations. Mean (±standard error [SE]) of blood PK data were plotted on linear and semi logarithmic scales (FIGS. 1-2).

[2] = system: regional brain GSH/creatine ratio; assay: 1H-MRS change from baseline of regional brain GSH/Creatine ratio after single dose IN NAC
Description: as §1, §2

In the case of `CC(=O)N[C@@H](CS)C(=O)O` [NAC, N-acetylcysteine], the “increase of NAA/creatine ratio post-dose” value (NAA/creatine ratio; 196 mg dose group, second of two values, time point unclear (1, 3 and 6 hours named)) is reported as 9.0%, the “increase of NAA/creatine ratio post-dose” value (NAA/creatine ratio; 196 mg dose group, time point unclear (1, 3 and 6 hours named)) is reported as 7.9% and the “increase of NAA/creatine ratio post-dose” value (NAA/creatine ratio; 200 mg dose group, 1 hour post-dose) is reported as 4.5%. The “increase of NAA/creatine ratio post-dose” value (NAA/creatine ratio; 200 mg dose group, 3 hours post-dose) was 6.0%, the “increase of NAA/creatine ratio post-dose” value (NAA/creatine ratio; 200 mg dose group, 6 hours post-dose) was 3.8% and the “post-dose changes in the NAA/creatine ratio relative to baseline” value (NAA/creatine ratio; striatum and occipital cortex, both dose groups (200 mg and 196 mg), described as minimal) was at most 2.5%. For the same molecule, the “post-dose changes in the NAA/creatine ratio” value (NAA/creatine ratio; striatum, 6 hours, 196 mg cohort) was “highly variable changes”, the “mean percentage change from Baseline in NAC (blood)” value (“mean percentage change” below) ([1]; 196 mg IN NAC, APTAR 5 mL CPS Syringe, 1 hour post-dose) was 2881.66% and the “mean percentage change” value ([1]; 196 mg IN NAC, APTAR 5 mL CPS Syringe, 3 hours post-dose) was 1158.20%. The “mean percentage change” value ([1]; 196 mg IN NAC, APTAR 5 mL CPS Syringe, 6 hours post-dose) was 419.35%, the “mean percentage change” value ([1]; 200 mg IN NAC, Teleflex MAD device, 1 hour post-dose) was 2379.60% and the “mean percentage change” value ([1]; 200 mg IN NAC, Teleflex MAD device, 3 hours post-dose) was 1117.01%. For the same molecule, the “mean percentage change” value ([1]; 200 mg IN NAC, Teleflex MAD device, 6 hours post-dose) was 438.17%, the “effect on regional brain GSH (overall)” value ([2]; 196 mg IN NAC, APTAR 5 mL CPS Syringe, 1, 3 and 6 hour post-dose timepoints) was “failed to produce consistent elevation” and the “effect on regional brain GSH (overall)” value ([2]; 200 mg IN NAC, Teleflex MAD device, 5 participants with analyzable MRS data) was “time- and region-dependent increase”. For the same molecule, the “increase of regional brain GSH/creatine ratio relative to pre-dose baseline” value ([2]; dorsolateral prefrontal cortex (n=5), 200 mg IN NAC, Teleflex MAD device, 1 hour post-dose) was about 17%, the “increase of regional brain GSH/creatine ratio relative to pre-dose baseline” value ([2]; dorsolateral prefrontal cortex (n=5), 200 mg IN NAC, Teleflex MAD device, 3 hours post-dose) was about 42% and the “increase of regional brain GSH/creatine ratio relative to pre-dose baseline” value ([2]; dorsolateral prefrontal cortex (n=5), 200 mg IN NAC, Teleflex MAD device, 6 hours post-dose) was about 34%. The “increase of regional brain GSH/creatine ratio relative to pre-dose baseline” value ([2]; dorsolateral prefrontal cortex, 196 mg IN NAC, APTAR 5 mL CPS Syringe (n=3), 1 hour) was 18%, the “decrease of regional brain GSH/creatine ratio relative to pre-dose baseline” value ([2]; dorsolateral prefrontal cortex, 196 mg IN NAC, APTAR 5 mL CPS Syringe (n=3), 3 hours) was 71% and the “increase of regional brain GSH/creatine ratio relative to pre-dose baseline” value ([2]; dorsolateral prefrontal cortex, 196 mg IN NAC, APTAR 5 mL CPS Syringe (n=3), 6 hours) was 4%. The “increase of regional brain GSH/creatine ratio relative to pre-dose baseline” value ([2]; occipital cortex (n=5), 200 mg IN NAC, Teleflex MAD device, 1 hour post-dose) was about 25%, the “increase of regional brain GSH/creatine ratio relative to pre-dose baseline” value ([2]; occipital cortex (n=5), 200 mg IN NAC, Teleflex MAD device, 3 hours post-dose) was about 49% and the “increase of regional brain GSH/creatine ratio relative to pre-dose baseline” value ([2]; occipital cortex (n=5), 200 mg IN NAC, Teleflex MAD device, 6 hours post-dose) was about 21%. The “decrease of regional brain GSH/creatine ratio relative to pre-dose baseline” value ([2]; occipital cortex, 196 mg IN NAC, APTAR 5 mL CPS Syringe (n=3), 1 hour) was 17%, the “increase of regional brain GSH/creatine ratio relative to pre-dose baseline” value ([2]; occipital cortex, 196 mg IN NAC, APTAR 5 mL CPS Syringe (n=3), 3 hours) was 2% and the “increase of regional brain GSH/creatine ratio relative to pre-dose baseline” value ([2]; occipital cortex, 196 mg IN NAC, APTAR 5 mL CPS Syringe (n=3), 6 hours) was 1%. For the same molecule, the “increase of regional brain GSH/creatine ratio relative to pre-dose baseline” value ([2]; striatum (n=4), 200 mg IN NAC, Teleflex MAD device, 1 hour post-dose) was “approximately 36%”, the “increase of regional brain GSH/creatine ratio relative to pre-dose baseline” value ([2]; striatum (n=4), 200 mg IN NAC, Teleflex MAD device, 3 hours post-dose) was about 20% and the “increase of regional brain GSH/creatine ratio relative to pre-dose baseline” value ([2]; striatum (n=4), 200 mg IN NAC, Teleflex MAD device, 6 hours post-dose) was about 14%. For the same molecule, the “increase of regional brain GSH/creatine ratio relative to pre-dose baseline” value ([2]; striatum, 196 mg IN NAC, APTAR 5 mL CPS Syringe (n=3), 1 hour) was 2%, the “decrease of regional brain GSH/creatine ratio relative to pre-dose baseline” value ([2]; striatum, 196 mg IN NAC, APTAR 5 mL CPS Syringe (n=3), 3 hours) was 11% and the “change of regional brain GSH/creatine ratio relative to pre-dose baseline” value ([2]; striatum, 196 mg IN NAC, APTAR 5 mL CPS Syringe (n=3), 6 hours) was “extreme variability”.
